Test results as given in patent publication US20120220581A1, “IMIDAZO[1,2-b]PYRIDAZINE DERIVATIVES AND THEIR USE AS PDE10 INHIBITORS” (Janssen-Cilag, S.A., priority 2009, published 2012).
Like-named read-outs stand apart in the source and are kept apart here.

Columns and labels:
[1] = biological target: T1, Rat recombinant PDE10A (rPDE10A2) (Rattus norvegicus, UniProt Q9QYJ6); test: In vitro assay PDE10A (SPA, 3H-cAMP); assay type: biochemical
T1 construct: inferred from the Ni metal chelate purification; made in house; host or cells: Sf9 insect cells (baculovirus)
T1 sequence (Q9QYJ6 1-794): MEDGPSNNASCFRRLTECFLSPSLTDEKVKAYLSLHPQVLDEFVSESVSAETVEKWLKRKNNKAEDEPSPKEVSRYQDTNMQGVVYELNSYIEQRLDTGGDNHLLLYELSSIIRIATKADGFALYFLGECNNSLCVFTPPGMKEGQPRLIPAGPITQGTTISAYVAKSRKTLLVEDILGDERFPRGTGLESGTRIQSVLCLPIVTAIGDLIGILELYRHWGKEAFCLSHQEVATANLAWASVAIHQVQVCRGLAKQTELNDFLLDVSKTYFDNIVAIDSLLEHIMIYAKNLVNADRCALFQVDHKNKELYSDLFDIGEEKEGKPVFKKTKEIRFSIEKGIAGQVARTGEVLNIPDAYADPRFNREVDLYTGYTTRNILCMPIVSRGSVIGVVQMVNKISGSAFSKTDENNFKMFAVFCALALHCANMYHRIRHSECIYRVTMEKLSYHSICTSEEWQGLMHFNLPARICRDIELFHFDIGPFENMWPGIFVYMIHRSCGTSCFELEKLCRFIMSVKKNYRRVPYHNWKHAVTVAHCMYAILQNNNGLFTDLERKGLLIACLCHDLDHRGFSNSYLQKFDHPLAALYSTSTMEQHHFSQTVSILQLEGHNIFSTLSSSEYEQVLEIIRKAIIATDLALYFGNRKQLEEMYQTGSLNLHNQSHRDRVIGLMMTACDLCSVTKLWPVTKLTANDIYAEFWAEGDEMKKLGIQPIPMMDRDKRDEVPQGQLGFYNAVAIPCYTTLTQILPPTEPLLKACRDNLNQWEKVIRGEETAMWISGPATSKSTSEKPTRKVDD
Procedure, shortened: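 Rat PDE10A2 expressed in Sf9 cells and Ni-purified; incubated with 60 nM cAMP plus 0.008 μCi 3H-cAMP in 50 mM Tris pH 7.8, 8.3 mM MgCl2, 1.7 mM EGTA for 60 min at room temperature. Product quantified by scintillation proximity counting; final DMSO 1%.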

[2] = system: apomorphine-induced stereotypy in rats; test: Apomorphine-induced stereotypy in rats (APO); assay type: in vivo; details: Rattus norvegicus
Protocol: Apomorphine (1.0 mg/kg, i.v.)-induced stereotypy (compulsive sniffing, licking, chewing) was scored every 5 min over the first hour after injection of apomorphine, following a 1 hour interval pre-treatment with the test compound. The score system was: (3) pronounced, (2) moderate, (1) slight, and (0) absent.

PDE5A3 = PDE5A3 (Homo sapiens, UniProt O76074); test: In vitro PDE selectivity assay (SPA), PDE5A3; assay type: biochemical; details: hPDE5A3; read-out: PDE 5A3 (expressed as pIC50) (converted)
Procedure, shortened: (§1)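 Inhibition of each PDE isoform was measured by scintillation proximity assay with ³H-cyclic nucleotide substrate, using incubation buffer, substrate concentration, incubation time and stop solution adapted per isoform. Compounds were tested in dose-response against 1% DMSO controls and enzyme-free blanks. IC50 came from a least-squares fit of blank-subtracted % of control versus concentration.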

[3] = biological target: other members of the PDE family (Homo sapiens, UniProt Q14432); test: In vitro PDE selectivity assay (SPA), other members of the PDE family (protocols in Table A); assay type: biochemical; details: hPDE3A; read-out: PDE 3A (expressed as pIC50) (converted)
Sequence of other members of the PDE family (Homo sapiens, UniProt Q14432) (Q14432 whole entry): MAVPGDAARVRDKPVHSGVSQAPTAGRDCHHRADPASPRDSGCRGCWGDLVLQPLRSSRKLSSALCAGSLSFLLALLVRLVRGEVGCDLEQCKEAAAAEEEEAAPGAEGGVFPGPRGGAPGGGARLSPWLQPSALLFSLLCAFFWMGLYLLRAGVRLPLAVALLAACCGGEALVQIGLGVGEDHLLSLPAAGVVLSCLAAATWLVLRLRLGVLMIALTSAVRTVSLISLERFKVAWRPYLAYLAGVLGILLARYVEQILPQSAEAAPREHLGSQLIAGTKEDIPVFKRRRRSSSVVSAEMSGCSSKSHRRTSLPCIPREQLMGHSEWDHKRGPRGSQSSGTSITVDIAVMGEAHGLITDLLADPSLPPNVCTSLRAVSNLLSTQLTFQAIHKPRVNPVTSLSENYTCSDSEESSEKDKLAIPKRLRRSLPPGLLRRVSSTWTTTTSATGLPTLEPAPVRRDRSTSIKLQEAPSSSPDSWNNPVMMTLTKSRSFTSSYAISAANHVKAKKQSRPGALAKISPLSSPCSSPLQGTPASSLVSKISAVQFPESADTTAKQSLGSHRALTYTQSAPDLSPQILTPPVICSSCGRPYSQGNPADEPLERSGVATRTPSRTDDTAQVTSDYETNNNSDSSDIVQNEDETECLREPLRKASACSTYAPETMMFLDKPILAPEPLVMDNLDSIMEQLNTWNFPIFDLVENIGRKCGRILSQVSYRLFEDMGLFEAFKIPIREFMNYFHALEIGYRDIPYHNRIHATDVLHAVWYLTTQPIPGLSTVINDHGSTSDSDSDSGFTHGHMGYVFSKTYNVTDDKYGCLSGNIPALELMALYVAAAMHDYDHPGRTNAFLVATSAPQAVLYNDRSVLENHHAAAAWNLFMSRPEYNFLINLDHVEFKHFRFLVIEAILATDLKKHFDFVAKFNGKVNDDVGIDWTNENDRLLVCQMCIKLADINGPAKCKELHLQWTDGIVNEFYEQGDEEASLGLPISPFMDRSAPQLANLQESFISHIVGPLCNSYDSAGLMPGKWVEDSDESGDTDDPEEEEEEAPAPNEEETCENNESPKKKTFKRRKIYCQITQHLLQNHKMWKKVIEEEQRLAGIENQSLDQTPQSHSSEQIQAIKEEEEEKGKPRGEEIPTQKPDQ
Procedure, shortened: as §1

[4] = biological target: other members of the PDE family (Homo sapiens, UniProt O00408); test: as above; assay type: biochemical; details: hPDE2A; read-out: PDE 2A (expressed as pIC50) (converted)
Sequence of other members of the PDE family (Homo sapiens, UniProt O00408) (O00408 whole entry): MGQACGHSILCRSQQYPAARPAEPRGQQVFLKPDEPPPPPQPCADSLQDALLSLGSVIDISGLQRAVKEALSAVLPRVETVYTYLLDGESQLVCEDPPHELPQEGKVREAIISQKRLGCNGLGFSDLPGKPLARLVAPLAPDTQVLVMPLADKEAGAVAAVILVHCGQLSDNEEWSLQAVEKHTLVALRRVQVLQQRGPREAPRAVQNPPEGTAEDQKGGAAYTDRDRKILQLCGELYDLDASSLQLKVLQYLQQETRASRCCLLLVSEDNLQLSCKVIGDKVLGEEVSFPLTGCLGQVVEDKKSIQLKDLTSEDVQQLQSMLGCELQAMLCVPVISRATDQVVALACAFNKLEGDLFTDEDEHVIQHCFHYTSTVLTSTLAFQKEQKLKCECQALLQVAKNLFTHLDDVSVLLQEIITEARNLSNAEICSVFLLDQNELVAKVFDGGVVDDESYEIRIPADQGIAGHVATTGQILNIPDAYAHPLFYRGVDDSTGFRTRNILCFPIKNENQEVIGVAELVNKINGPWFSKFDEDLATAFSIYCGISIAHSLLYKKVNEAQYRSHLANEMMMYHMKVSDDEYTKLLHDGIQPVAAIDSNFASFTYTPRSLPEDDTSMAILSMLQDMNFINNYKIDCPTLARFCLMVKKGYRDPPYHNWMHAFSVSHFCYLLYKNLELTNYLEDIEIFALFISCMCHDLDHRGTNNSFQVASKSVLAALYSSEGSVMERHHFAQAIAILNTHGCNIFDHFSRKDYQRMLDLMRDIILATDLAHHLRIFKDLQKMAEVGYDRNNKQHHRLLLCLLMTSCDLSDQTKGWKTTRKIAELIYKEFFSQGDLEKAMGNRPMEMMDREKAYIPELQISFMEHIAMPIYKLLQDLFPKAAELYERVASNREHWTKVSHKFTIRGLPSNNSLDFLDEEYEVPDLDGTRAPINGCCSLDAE
Procedure, shortened: as §1

[5] = biological target: other members of the PDE family (Homo sapiens, UniProt O76083); test: as above; assay type: biochemical; details: hPDE9A; read-out: PDE 9A (expressed as pIC50) (converted)
Sequence of other members of the PDE family (Homo sapiens, UniProt O76083) (O76083 whole entry): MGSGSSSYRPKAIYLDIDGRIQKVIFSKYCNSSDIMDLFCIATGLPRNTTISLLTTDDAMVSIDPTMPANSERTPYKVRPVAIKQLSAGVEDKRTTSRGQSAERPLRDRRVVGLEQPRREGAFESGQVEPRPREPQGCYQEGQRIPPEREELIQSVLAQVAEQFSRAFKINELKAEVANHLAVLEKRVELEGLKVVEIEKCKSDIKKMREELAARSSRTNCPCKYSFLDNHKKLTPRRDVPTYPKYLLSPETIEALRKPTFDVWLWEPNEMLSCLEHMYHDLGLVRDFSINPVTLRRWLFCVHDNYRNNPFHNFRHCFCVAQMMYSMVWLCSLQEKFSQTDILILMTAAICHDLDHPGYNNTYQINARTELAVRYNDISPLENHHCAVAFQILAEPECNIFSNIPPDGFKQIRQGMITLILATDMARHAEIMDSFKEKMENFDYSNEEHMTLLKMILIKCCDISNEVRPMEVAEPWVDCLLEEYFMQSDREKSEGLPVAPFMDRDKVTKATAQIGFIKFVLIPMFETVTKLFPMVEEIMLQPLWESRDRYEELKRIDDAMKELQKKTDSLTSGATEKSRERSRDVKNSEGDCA
Procedure, shortened: as §1

[6] = biological target: other members of the PDE family (Homo sapiens, UniProt Q9HCR9); test: as above; assay type: biochemical; details: hPDE11A4; read-out: PDE 11A4 (expressed as pIC50) (converted)
Sequence of other members of the PDE family (Homo sapiens, UniProt Q9HCR9) (Q9HCR9 whole entry): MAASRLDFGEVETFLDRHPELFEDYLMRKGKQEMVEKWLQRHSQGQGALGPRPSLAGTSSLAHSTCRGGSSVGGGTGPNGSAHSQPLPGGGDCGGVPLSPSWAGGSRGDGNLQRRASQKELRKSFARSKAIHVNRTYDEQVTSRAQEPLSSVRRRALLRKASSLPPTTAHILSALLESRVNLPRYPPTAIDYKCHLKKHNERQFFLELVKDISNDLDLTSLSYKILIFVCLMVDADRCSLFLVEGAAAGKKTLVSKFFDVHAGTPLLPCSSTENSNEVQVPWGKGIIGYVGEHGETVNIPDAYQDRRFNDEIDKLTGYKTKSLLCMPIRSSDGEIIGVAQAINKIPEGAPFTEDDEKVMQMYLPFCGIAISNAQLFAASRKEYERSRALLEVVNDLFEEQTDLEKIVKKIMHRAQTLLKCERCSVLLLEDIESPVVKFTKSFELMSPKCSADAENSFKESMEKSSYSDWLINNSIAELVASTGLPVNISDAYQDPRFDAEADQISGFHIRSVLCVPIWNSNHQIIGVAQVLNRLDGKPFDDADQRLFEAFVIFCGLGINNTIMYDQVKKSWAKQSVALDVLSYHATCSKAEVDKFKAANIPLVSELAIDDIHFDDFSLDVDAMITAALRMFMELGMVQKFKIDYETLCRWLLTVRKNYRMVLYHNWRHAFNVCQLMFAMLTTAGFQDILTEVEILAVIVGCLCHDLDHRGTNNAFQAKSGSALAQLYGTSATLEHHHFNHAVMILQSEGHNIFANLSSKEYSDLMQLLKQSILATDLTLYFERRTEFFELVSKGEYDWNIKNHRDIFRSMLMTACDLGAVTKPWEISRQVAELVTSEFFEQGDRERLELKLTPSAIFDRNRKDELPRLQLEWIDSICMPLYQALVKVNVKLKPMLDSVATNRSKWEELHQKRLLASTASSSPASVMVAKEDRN
Procedure, shortened: as §1

[7] = biological target: other members of the PDE family (Homo sapiens, UniProt Q13946); test: as above; assay type: biochemical; details: hPDE7A1; read-out: PDE 7A (expressed as pIC50) (converted)
Sequence of other members of the PDE family (Homo sapiens, UniProt Q13946) (Q13946 whole entry): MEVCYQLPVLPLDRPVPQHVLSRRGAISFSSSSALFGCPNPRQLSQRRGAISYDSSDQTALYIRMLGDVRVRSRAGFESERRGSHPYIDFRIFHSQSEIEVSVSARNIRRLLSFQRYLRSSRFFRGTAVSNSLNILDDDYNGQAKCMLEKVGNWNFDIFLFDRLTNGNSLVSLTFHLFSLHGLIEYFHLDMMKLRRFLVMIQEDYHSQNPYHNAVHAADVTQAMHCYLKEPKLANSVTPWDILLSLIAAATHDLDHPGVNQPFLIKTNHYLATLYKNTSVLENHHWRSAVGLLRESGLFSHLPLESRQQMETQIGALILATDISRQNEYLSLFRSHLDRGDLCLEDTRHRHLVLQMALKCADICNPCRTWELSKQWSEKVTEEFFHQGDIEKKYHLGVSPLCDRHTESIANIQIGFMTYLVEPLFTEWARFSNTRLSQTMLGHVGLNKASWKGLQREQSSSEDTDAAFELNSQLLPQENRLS
Procedure, shortened: as §1

PDE4D3 = PDE4D3 (Homo sapiens, UniProt Q08499); test: In vitro PDE selectivity assay (SPA), PDE4D3; assay type: biochemical; details: hPDE4D3; read-out: PDE 4D3 (expressed as pIC50) (converted)
Sequence of PDE4D3 (Q08499 1-673 isoform Q08499-2): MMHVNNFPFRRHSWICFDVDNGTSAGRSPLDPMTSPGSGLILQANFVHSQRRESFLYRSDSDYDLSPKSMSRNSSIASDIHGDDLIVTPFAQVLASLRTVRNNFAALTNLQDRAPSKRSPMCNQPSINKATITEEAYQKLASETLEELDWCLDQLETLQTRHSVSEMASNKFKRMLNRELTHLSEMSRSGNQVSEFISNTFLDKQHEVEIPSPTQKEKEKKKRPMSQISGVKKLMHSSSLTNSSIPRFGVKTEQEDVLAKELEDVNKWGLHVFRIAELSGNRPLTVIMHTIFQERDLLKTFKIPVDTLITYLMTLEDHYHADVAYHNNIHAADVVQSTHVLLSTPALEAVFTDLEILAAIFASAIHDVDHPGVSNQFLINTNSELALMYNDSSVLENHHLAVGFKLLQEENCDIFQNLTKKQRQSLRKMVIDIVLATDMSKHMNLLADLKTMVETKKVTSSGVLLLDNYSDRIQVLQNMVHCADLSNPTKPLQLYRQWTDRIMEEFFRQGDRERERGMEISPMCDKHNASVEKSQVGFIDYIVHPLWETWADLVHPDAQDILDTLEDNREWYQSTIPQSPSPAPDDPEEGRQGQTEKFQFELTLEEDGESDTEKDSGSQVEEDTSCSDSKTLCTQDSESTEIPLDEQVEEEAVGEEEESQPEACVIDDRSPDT
Procedure, shortened: as §1

PDE1B1 = PDE1B1 (Homo sapiens, UniProt Q01064); test: In vitro PDE selectivity assay (SPA), PDE1B1; assay type: biochemical; details: hPDE1B1; read-out: PDE 1B1 (expressed as pIC50) (converted)
[8] = system: female hooded-Lister rats; test: Object recognition test (NOR) after sub-chronic PCP; assay type: in vivo, rat
Protocol: 60 female hooded-Lister rats (Charles River, UK) were used as subjects for these studies and weighed 248 g±20 g. Rats were allowed at least a 7-day acclimatization period to the animal unit prior to commencement of experimentation. Rats were housed in groups of 5 under standard laboratory conditions under a 12 h light:dark cycle, lights on at 0700 h. All testing was carried out in the light phase. Food and water were freely provided. All experiments were conducted in accordance with the Animals Scientific Procedures Act, U.K. 1986 and were approved by the University of Bradford ethical review panel.
40 mg of test compound was dissolved in 5 ml of 40% hydroxypropyl β-cyclodextrin (HPBC) solution. The solution was sonicated until completely dissolved. 2 ml of sterile water was added and the pH measured and adjusted with NaOH solution (0.1N) to obtain pH ˜4. Finally, sterile water was added to a final volume of 10 ml. This stock solution was then diluted in 20% HPBC to obtain the final concentrations. 100 mg of PQ10 was dissolved in a 40% HPBC solution and 8 mg of tartaric acid. The solution was sonicated until completely dissolved. 5 ml of sterile water was added and the pH measured and adjusted with NaOH solution (0.1N) to obtain pH ˜4. Finally sterile water was added to a final volume of 10 ml.
Test compound was administered at doses of 0.3 and 1.0 mg/kg via the oral route 30 min prior to testing.
PQ10 was administered at a dose of 1.0 mg/kg via the oral route 30 min prior to testing.
Certain pre-clinical tests allow the observation of relatively subtle cognitive deficits in the rat that resemble cognitive symptoms in subjects with schizophrenia. The cognitive deficits observed are seen in behaviours such as episodic memory, which can be measured by recognition tasks such as the novel object recognition (NOR) paradigm. A recognition memory task allows the comparison between presented stimuli and previously stored information. Ennaceur, A Delacour, J (1988) A new one-trial test for neurobiological studies of memory in rats Behav Brain Res 31: 47-59 described the NOR test in rats which was based on the differential exploration of familiar and new objects. The NOR test is a non-rewarded, ethologically relevant paradigm based on the spontaneous exploratory behaviour of rats that measures episodic memory. Each session consists of two trials. In the first trial, the rats are exposed to two identical objects in an open field. During the second trial, rats are exposed to two dissimilar objects, one familiar object from the first trial and one new object. Object recognition in rats can be measured as the difference in time spent exploring the familiar and the new object. […] The duration of each trial is also important as a preference for the novel object only lasts during the first 1 or 2 minutes, after which time preference diminishes as both objects become familiar and are explored equally.
Rats were randomly assigned to the 8 treatment groups
Rats were allowed to habituate to the empty test box and the behavioural test room environment for 1 h on day 1. Prior to behavioural testing on day 2 rats were given a further 3 min habituation.
Following the 3 min habituation period, the rats were given two 3 min trials (T1 and T2) which were separated by a 1 min inter-trial interval in the home cage during which the objects were changed.
In this trial, the animals were allowed to explore two identical objects (A1 and A2) for 3 min.
In this trial, the animals explored a familiar object (A) from T1 and a novel object (B) for 3 min. The familiar object presented during T2 was a duplicate of the object presented in T1 in order to avoid any olfactory trails.
The object exploration was defined by animals licking, sniffing or touching the object with the forepaws whilst sniffing, but not leaning against, turning around, standing or sitting on the object. […]

[9] = system: female hooded-Lister rats; test: as above; assay type: in vivo, rat; details: PCP + 1 mg/kg p.o., Day 1, 3 min retention trial, mean
[10] = biological target: other members of the PDE family (Homo sapiens, UniProt P16499+P35913); test: In vitro PDE selectivity assay (SPA), other members of the PDE family (protocols in Table A); assay type: biochemical; details: hPDE6AB; read-out: PDE 6AB (expressed as pIC50) (converted)
Procedure, shortened: as §1

[11] = biological target: other members of the PDE family (Homo sapiens, UniProt O60658); test: as above; assay type: biochemical; details: hPDE8A1; read-out: PDE 8A1 (expressed as pIC50) (converted)
Procedure, shortened: as §1

[12] = pIC50 corresponds to the −log IC50 expressed in mol/L, read-out: PDE10A2 pIC50 (converted)
[13] = Table 4 in vitro selectivity, read-out: PDE 10A2 (expressed as pIC50) (converted)
[14] = dose at which 50% of the tested animals show the effect, ≧: active in 30% of the animals at the indicated dose, ≦: active in 60%

IC50 [1, 12] [µM]	melting point	IC50 (PDE5A3) [µM]	IC50 [1, 13] [µM]	IC50 [3] [µM]	IC50 [4] [µM]	IC50 [5] [µM]	IC50 [6] [µM]	IC50 [7] [µM]	IC50 (PDE4D3) [µM]	IC50 (PDE1B1) [µM]	IC50 [10] [µM]	IC50 [11] [µM]	Compound	ED50 ([2]; n.d.: found not active at threshold dose 2.5 mg/kg or 10 mg/kg (a), not further tested) [mg/kg]	ED50 [2, 14] [mg/kg]	DI (discrimination index) ([8]; PCP + 1 mg/kg p.o., mean)	LMA (no. of lines crossed) ([8]; PCP + 1 mg/kg p.o., mean)	effects of acute treatment in the NOR task ([8]; acute treatment, oral route 30 min prior to testing, compound 1 0.3-1.0 mg/kg, PQ10 1.0 mg/kg, sub-chronic PCP female rats)	T2(A) exploration time of familiar object, retention trial [9] [s]	T2(B) exploration time of novel object, retention trial [9] [s]
0.0603	> 300 °C (dec.)												Cc1nc2c(-c3ccncc3)ccnn2c1-c1ccc(N2CCOCC2)nc1 [compound 31, 2-methyl-3-[6-(4-morpholinyl)-3-pyridinyl]-8-(4-pyridinyl)-imidazo[1,2-b]pyridazine]	> 2.5						
0.339		2.69	0.339	> 10	7.94	> 10	> 10	> 10	> 10	> 10			c1cc(-c2ccnn3c(-c4ccc(N5CCOCC5)nc4)cnc23)ccn1 [compound 61, 3-[6-(4-morpholinyl)-3-pyridinyl]-8-(4-pyridinyl)-imidazo[1,2-b]pyridazine]		1.2					
													COc1cc2ncnc(N3CC[C@@H](Oc4cnc5ccccc5n4)C3)c2cc1OC [PQ10, reference compound]			0.4193	65.5 no. of lines crossed	selective for the retention phase	7.9	19.9
0.0562		> 10	0.0562	> 10	> 10	> 10	> 10	> 10	> 10		> 10	> 10	COCCn1cc(-c2c(C)nc3c(N4CCOCC4)ccnn23)cn1 [compound 36, 3-[1-(2-methoxyethyl)-1H-pyrazol-4-yl]-2-methyl-8-(4-morpholinyl)-imidazo[1,2-b]pyridazine]		5					
